Measurements reported in PubChem BioAssay (NCI).
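Test compounds were applied to cells in 96-well plates for 48 hours at 5 doses. GI50 = concentration required for 50% inhibition of growth. TGI: concentration producing complete growth inhibition.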

Experiments:
Test in all cases: NCI anticancer screen, dose series, 48 h
[1] = tested on: 786-0 renal
[2] = tested on: A498 renal
[3] = tested on: A549 NSCLC
[4] = tested on: ACHN renal
[5] = tested on: BT-549 breast
[6] = tested on: CAKI-1 renal
[7] = tested on: CCRF-CEM leukemia
[8] = tested on: COLO 205 colon
[9] = tested on: DU-145 prostate
[10] = tested on: EKVX NSCLC
[11] = tested on: HCC-2998 colon
[12] = tested on: HCT-116 colon
[13] = tested on: HCT-15 colon
[14] = tested on: HL-60(TB) leukemia
[15] = tested on: HOP-62 NSCLC
[16] = tested on: HOP-92 NSCLC
[17] = tested on: HS 578T breast
[18] = tested on: HT29 colon
[19] = tested on: IGROV1 ovarian
[20] = tested on: K-562 leukemia
[21] = tested on: KM12 colon
[22] = tested on: LOX IMVI melanoma
[23] = tested on: M14 melanoma
[24] = tested on: MALME-3M melanoma
[25] = tested on: MCF7 breast
[26] = tested on: MDA-MB-231 breast
[27] = tested on: MDA-MB-435
[28] = tested on: MDA-N
[29] = tested on: MOLT-4 leukemia
[30] = tested on: NCI-H226 lung
[31] = tested on: NCI-H23 lung
[32] = tested on: NCI-H460 lung
[33] = tested on: NCI/ADR-RES ovarian
[34] = tested on: OVCAR-3 ovarian
[35] = tested on: OVCAR-4 ovarian
[36] = tested on: OVCAR-5 ovarian
[37] = tested on: OVCAR-8 ovarian
[38] = tested on: PC-3 prostate
[39] = tested on: RPMI-8226 leukemia
[40] = tested on: RXF 393 renal
[41] = tested on: SF-268 CNS
[42] = tested on: SF-295 CNS
[43] = tested on: SF-539 CNS
[44] = tested on: SK-MEL-2 melanoma
[45] = tested on: SK-MEL-28 melanoma
[46] = tested on: SK-MEL-5 melanoma
[47] = tested on: SK-OV-3 ovarian
[48] = tested on: SN12C renal
[49] = tested on: SNB-19 CNS
[50] = tested on: SNB-75 CNS
[51] = tested on: SR leukemia
[52] = tested on: SW-620 colon
[53] = tested on: T-47D breast
[54] = tested on: TK-10 renal
[55] = tested on: U251 CNS
[56] = tested on: UACC-257 melanoma
[57] = tested on: UACC-62 melanoma
[58] = tested on: UO-31 renal

[Cl][Hg][Cl]
GI50 [1]: 12.6 µM
TGI [1]: 25.1 µM
GI50 [2]: 20.4 µM
TGI [2]: 34.7 µM
GI50 [3]: 20.2 µM
TGI [3]: 39.3 µM
GI50 [4]: 18 µM
TGI [4]: 32 µM
GI50 [5]: 20.3 µM
TGI [5]: 34.8 µM
GI50 [6]: 13.7 µM
TGI [6]: 18.1 µM
GI50 [7]: 1.83 µM
TGI [7]: 7.38 µM
GI50 [8]: 10.3 µM
TGI [8]: 24.6 µM
GI50 [9]: 20.1 µM
TGI [9]: 34.8 µM
GI50 [10]: 19.9 µM
TGI [10]: 34.6 µM
GI50 [11]: 17.5 µM
TGI [11]: 31.7 µM
GI50 [12]: 18 µM
TGI [12]: 33.4 µM
GI50 [13]: 15.8 µM
TGI [13]: 30.1 µM
GI50 [14]: 3.24 µM
TGI [14]: 10.1 µM
GI50 [15]: 16.7 µM
TGI [15]: 31.3 µM
GI50 [16]: 17.3 µM
TGI [16]: 32.7 µM
GI50 [17]: 22.8 µM
TGI [17]: 57.4 µM
GI50 [18]: 16.1 µM
TGI [18]: 36.3 µM
GI50 [19]: 8.2 µM
TGI [19]: 24.8 µM
GI50 [20]: 0.302 µM
TGI [20]: 4.33 µM
GI50 [21]: 16.8 µM
TGI [21]: 31.6 µM
GI50 [22]: 1.72 µM
TGI [22]: 16 µM
GI50 [23]: 16.2 µM
TGI [23]: 32.2 µM
GI50 [24]: 9.16 µM
TGI [24]: 22.1 µM
GI50 [25]: 12.5 µM
TGI [25]: > 56 µM
GI50 [26]: 17.1 µM
TGI [26]: 31.7 µM
GI50 [27]: 15.7 µM
TGI [27]: 30.2 µM
GI50 [28]: 15.5 µM
TGI [28]: 28.9 µM
GI50 [29]: 4.08 µM
TGI [29]: > 37.7 µM
GI50 [30]: 25.1 µM
TGI [30]: 47.7 µM
GI50 [31]: 17.2 µM
TGI [31]: 40.5 µM
GI50 [32]: 15.7 µM
TGI [32]: 35.5 µM
GI50 [33]: 28.5 µM
TGI [33]: 79.6 µM
GI50 [34]: 15.9 µM
TGI [34]: 32.1 µM
GI50 [35]: 16.9 µM
TGI [35]: 35 µM
GI50 [36]: 19.3 µM
TGI [36]: 33.6 µM
GI50 [37]: 21.6 µM
TGI [37]: 56.3 µM
GI50 [38]: 17.3 µM
TGI [38]: 32 µM
GI50 [39]: 20 µM
TGI [39]: > 60.3 µM
GI50 [40]: 18.2 µM
TGI [40]: 32.6 µM
GI50 [41]: 18.1 µM
TGI [41]: 46.9 µM
GI50 [42]: 16.7 µM
TGI [42]: 31.9 µM
GI50 [43]: 18.3 µM
TGI [43]: 33.5 µM
GI50 [44]: 16.2 µM
TGI [44]: 34.5 µM
GI50 [45]: 15.3 µM
TGI [45]: 29.8 µM
GI50 [46]: 15.4 µM
TGI [46]: 30.5 µM
GI50 [47]: 20.2 µM
TGI [47]: 34.5 µM
GI50 [48]: 16.1 µM
TGI [48]: 29.6 µM
GI50 [49]: 17.9 µM
TGI [49]: 32 µM
GI50 [50]: 18 µM
TGI [50]: 34.8 µM
GI50 [51]: 1.72 µM
GI50 [52]: 5.4 µM
TGI [52]: 40.2 µM
GI50 [53]: 5.18 µM
TGI [53]: 30.2 µM
GI50 [54]: 17.5 µM
TGI [54]: 31.5 µM
GI50 [55]: 6.25 µM
TGI [55]: 19.8 µM
GI50 [56]: 17.7 µM
TGI [56]: 34.9 µM
GI50 [57]: 13.2 µM
TGI [57]: 27.3 µM
GI50 [58]: 22.7 µM
TGI [58]: 37.2 µM
